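Results reflect a 48-hour exposure of cells in 96-well plates to compound at five concentrations. Abbreviation: GI50, concentration required for 50% inhibition of growth. TGI denotes the concentration required for complete inhibition of growth.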
Key:
Experiment in all cases: DTP human tumour cell line panel, 48 h
CCRF-CEM leukemia = tested on: CCRF-CEM leukemia
COLO 205 colon = tested on: COLO 205 colon
HOP-92 NSCLC = tested on: HOP-92 NSCLC
OVCAR-4 ovarian = tested on: OVCAR-4 ovarian
RPMI-8226 leukemia = tested on: RPMI-8226 leukemia
SK-MEL-5 melanoma = tested on: SK-MEL-5 melanoma
SNB-19 CNS = tested on: SNB-19 CNS
HCC-2998 colon = tested on: HCC-2998 colon
MALME-3M melanoma = tested on: MALME-3M melanoma

Structure (SMILES) | GI50 (CCRF-CEM leukemia) | TGI (CCRF-CEM leukemia) | GI50 (COLO 205 colon) | TGI (COLO 205 colon) | GI50 (HOP-92 NSCLC) | TGI (HOP-92 NSCLC) | GI50 (OVCAR-4 ovarian) | TGI (OVCAR-4 ovarian) | GI50 (RPMI-8226 leukemia) | TGI (RPMI-8226 leukemia) | GI50 (SK-MEL-5 melanoma) | TGI (SK-MEL-5 melanoma) | GI50 (SNB-19 CNS) | TGI (SNB-19 CNS) | TGI (HCC-2998 colon) | TGI (MALME-3M melanoma) | GI50 (HCC-2998 colon) | GI50 (MALME-3M melanoma)
CC1=C(C(=O)Nc2ccc(Cl)c(Cl)c2)C(c2cccc(Oc3ccccc3)c2)NC(=O)N1 (configuration not stated) | > 50 µM | > 50 µM | 12.6 µM | 35.7 µM | 24.6 µM | > 50 µM | 11.2 µM | > 50 µM | 13.4 µM | > 50 µM | 8.07 µM | 17 µM | 20.1 µM | > 50 µM | – | – | – | –
Cc1cccc(C)c1NC(=O)C(=O)C(C(=O)c1ccccc1-c1ccccc1)C1OC(=O)c2ccccc21 (configuration not stated) | – | > 100 µM | – | 37.9 µM | – | 40 µM | – | – | – | 60.1 µM | – | 33.7 µM | – | – | 29.7 µM | 33.4 µM | – | –
Cc1nc([N+](=O)[O-])cn1CC(=N)N | – | > 100 µM | – | > 100 µM | – | – | – | > 100 µM | – | > 100 µM | – | > 100 µM | – | > 100 µM | > 100 µM | > 100 µM | – | –
CCC1CCc2c(c(=O)oc3c2cc(OC)c2cccc(OC)c23)C1 (configuration not stated) | – | > 100 µM | – | > 100 µM | – | – | – | > 100 µM | – | > 100 µM | – | 80.9 µM | – | > 100 µM | > 100 µM | > 100 µM | – | –
COc1cc2c(c(OC)c1OC)-c1ncc3cc4c(cc3c1C2)OCO4 | – | – | 29.7 µM | > 100 µM | – | – | 46.3 µM | > 100 µM | 17.8 µM | > 100 µM | 17.4 µM | 36.5 µM | > 100 µM | > 100 µM | 48.1 µM | – | 17.4 µM | –
CCCN1CN(C(C(=O)N[C@@H]2C(=O)N3C2SC(C)(C)C3C(=O)O)c2ccc(O)cc2)CSC1=S (some centres not stated) | – | > 100 µM | – | > 100 µM | – | > 100 µM | – | > 100 µM | – | > 100 µM | – | > 100 µM | – | > 100 µM | – | > 100 µM | – | –
Cc1ccc(C)c(N=C2NC(=O)C(CC(=O)Nc3ccc(Cl)cc3Cl)S2)c1 (configuration not stated) | – | > 100 µM | – | > 100 µM | – | – | – | > 100 µM | – | > 100 µM | – | > 100 µM | – | > 100 µM | > 100 µM | > 100 µM | – | –
Cc1cc(S(=O)(=O)O)c(NC(=O)C(=O)Cc2cc(=O)oc3cc(O)ccc23)cc1Cl | – | > 100 µM | – | > 100 µM | – | > 100 µM | – | > 100 µM | – | – | – | > 100 µM | – | > 100 µM | > 100 µM | > 100 µM | – | –
CCOP(=O)(OCC)OC1C=CC2CCC1C2 (configuration not stated) | – | > 100 µM | – | > 100 µM | – | – | – | > 100 µM | – | 54.2 µM | – | > 100 µM | – | > 100 µM | > 100 µM | > 100 µM | – | –
O=P1(c2ccccc2)CCCCC1 | – | > 100 µM | – | > 100 µM | – | – | – | > 100 µM | – | > 100 µM | – | > 100 µM | – | > 100 µM | > 100 µM | > 100 µM | – | –
CCCO/S(=N\S(=O)(=O)c1ccccc1)c1ccccc1[N+](=O)[O-] (configuration not stated) | – | > 100 µM | – | > 100 µM | – | – | – | > 100 µM | – | > 100 µM | – | > 100 µM | – | > 100 µM | > 100 µM | > 100 µM | – | –
COc1ncc(-c2ccc3ncnc(Nc4cccc(Cl)c4)c3c2)cc1NS(=O)(=O)C1CC1 | > 100 µM | > 100 µM | > 100 µM | > 100 µM | 0.394 µM | > 100 µM | – | – | > 100 µM | > 100 µM | > 100 µM | > 100 µM | 3.92 µM | > 100 µM | > 100 µM | – | > 100 µM | –
COc1c[c]([Hg][O]C(C)=O)c(OC)c(NC(=O)CC(C)=O)[c]1[Hg][O]C(C)=O | 1.75 µM | 5.43 µM | 2.37 µM | – | – | – | 15.9 µM | 30 µM | 4.22 µM | 33.4 µM | 2.75 µM | 11.2 µM | 5.56 µM | 12.3 µM | 30.1 µM | 3 µM | 15.8 µM | 1.53 µM
CC1COC(C)(C)P(=O)(c2ccccc2)C1 (configuration not stated) | – | > 100 µM | – | > 100 µM | – | – | – | – | – | > 100 µM | – | > 100 µM | – | > 100 µM | > 100 µM | > 100 µM | – | –
CC(C)N(CCn1c2c3ccccc3ccc2c2oc(=O)c3ccccc3c21)C(C)C | – | > 100 µM | – | > 100 µM | – | > 92.3 µM | – | > 100 µM | – | > 100 µM | – | – | – | > 100 µM | – | > 100 µM | – | –
CC(=O)[O][Ga]([Br])[O]C(C)=O | > 100 µM | > 100 µM | > 100 µM | > 100 µM | > 100 µM | > 100 µM | > 100 µM | > 100 µM | > 100 µM | > 100 µM | > 100 µM | > 100 µM | > 100 µM | > 100 µM | – | > 100 µM | – | > 100 µM
O=C(/C=C/c1ccccc1Cl)NC1C=Nc2ccc([N+](=O)[O-])cc2NC1 (configuration not stated) | – | 84.8 µM | – | > 100 µM | – | – | – | > 100 µM | – | > 100 µM | – | > 100 µM | – | > 100 µM | > 100 µM | > 100 µM | – | –
O=Cc1ccc2c(c1-c1c(C=O)ccc3c1OCO3)OCO2 | – | > 100 µM | – | > 100 µM | – | – | – | > 100 µM | – | > 100 µM | – | > 100 µM | – | > 100 µM | > 100 µM | > 100 µM | – | –

Reference: PubChem BioAssay (NCI)
